Test results published in PubChem BioAssay AID248 (DTP/NCI, 2004).
Where “and” joins values, the source holds several entries; their conditions need not be identical. Identical values can stand only once. Toxic doses and inconclusive results are not listed. No stated cut-off is given here; in the data, active means T/C of 150% or more; inactive means T/C below 125%.

System: L1210 leukemia ip in BDF1 mice, survival T/C
Assay: NCI In Vivo Anticancer Drug Screen. Data for tumor model L1210 Leukemia (intraperitoneal) in B6D2F1 (BDF1) mice
Conditions: endpoint: mean survival time, higher = longer survival
Outline: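 Tumor cells were implanted, animals were treated, and survival was followed. The result divides the treated measurement by the vehicle-control measurement.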

[1] = dose: 100.0 mg/kg/injection, schedule: Q01DX009 (ip), vehicle: saline
[2] = dose: 100.0 mg/kg/injection, schedule: Q04DX003 (ip), vehicle: saline
[3] = dose: 200.0 mg/kg/injection, schedule: Q01DX009 (ip), vehicle: saline
[4] = dose: 200.0 mg/kg/injection, schedule: Q04DX003 (ip), vehicle: saline
[5] = dose: 400.0 mg/kg/injection, schedule: Q01DX009 (ip), vehicle: saline
[6] = dose: 400.0 mg/kg/injection, schedule: Q04DX003 (ip), vehicle: saline
[7] = dose: 50.0 mg/kg/injection, schedule: Q01DX001 (ip), vehicle: saline
[8] = dose: 100.0 mg/kg/injection, schedule: Q01DX001 (ip), vehicle: saline
[9] = dose: 200.0 mg/kg/injection, schedule: Q01DX001 (ip), vehicle: saline
[10] = dose: 400.0 mg/kg/injection, schedule: Q01DX001 (ip), vehicle: saline
[11] = dose: 50.0 mg/kg/injection, schedule: Q01DX009 (ip), vehicle: saline with Tween-80
[12] = dose: 100.0 mg/kg/injection, schedule: Q01DX009 (ip), vehicle: saline with Tween-80
[13] = dose: 200.0 mg/kg/injection, schedule: Q01DX009 (ip), vehicle: saline with Tween-80
[14] = dose: 100.0 mg/kg/injection, schedule: Q04DX003 (ip), vehicle: Klucel (hydroxypropylcellulose) (HPC)
[15] = dose: 200.0 mg/kg/injection, schedule: Q04DX003 (ip), vehicle: Klucel (hydroxypropylcellulose) (HPC)
[16] = dose: 400.0 mg/kg/injection, schedule: Q04DX003 (ip), vehicle: Klucel (hydroxypropylcellulose) (HPC)
[17] = dose: 100.0 mg/kg/injection, schedule: Q04DX002 (ip), vehicle: Klucel (hydroxypropylcellulose) (HPC)
[18] = dose: 200.0 mg/kg/injection, schedule: Q04DX002 (ip), vehicle: Klucel (hydroxypropylcellulose) (HPC)

Measured: T/C

C[n+]1ccc2cc(-c3ccccc3)c3ccccc3c2c1
inactive: dose: 1.56 mg/kg/injection, schedule: Q01DX009 (ip), vehicle: water 102 % of control | dose: 3.12 mg/kg/injection, schedule: Q01DX009 (ip), vehicle: water 104 % of control | dose: 6.25 mg/kg/injection, schedule: Q01DX009 (ip), vehicle: water 104 % of control | dose: 6.25 mg/kg/injection, schedule: Q04DX003 (ip), vehicle: water 98 % of control | dose: 12.5 mg/kg/injection, schedule: Q01DX009 (ip), vehicle: water 95 % of control | dose: 12.5 mg/kg/injection, schedule: Q04DX003 (ip), vehicle: water 103 % of control | dose: 25.0 mg/kg/injection, schedule: Q04DX003 (ip), vehicle: water 88 % of control

C=CCN(Cc1cnc2nc(N)nc(N)c2n1)c1ccc(C(=O)NC(CCC(=O)O)C(=O)O)cc1 (stereo unspecified)
inactive: dose: 1.5 mg/kg/injection, schedule: Q01DX009 (ip), vehicle: sodium bicarbonate 108 % of control | dose: 3.0 mg/kg/injection, schedule: Q01DX009 (ip), vehicle: sodium bicarbonate 116 % of control | dose: 6.0 mg/kg/injection, schedule: Q01DX009 (ip), vehicle: sodium bicarbonate 118 % of control

Oc1cc(O)c(CN2CCOCC2)c(O)c1CN1CCOCC1
inactive: dose: 100.0 mg/kg/injection, schedule: Q01DX001 (ip), vehicle: other 98 % of control | dose: 200.0 mg/kg/injection, schedule: Q01DX001 (ip), vehicle: other 100 % of control | dose: 400.0 mg/kg/injection, schedule: Q01DX001 (ip), vehicle: other 95 % of control

CCOC(=O)CC1NCCc2c1[nH]c1ccccc21 (stereo unspecified)
inactive: dose: 6.25 mg/kg/injection, schedule: Q01DX001 (ip), vehicle: saline sonified 93 % of control | dose: 12.5 mg/kg/injection, schedule: Q01DX001 (ip), vehicle: saline sonified 98 % of control | dose: 25.0 mg/kg/injection, schedule: Q01DX001 (ip), vehicle: saline sonified 97 % of control

CC(=O)Oc1cccc2c1C(=O)c1ccccc1C2=O
inactive: [1] 103 % of control | [2] 103 % of control | [3] 103 % of control | [4] 97 % of control | [5] 104 % of control | [6] 103 % of control

CCOC(=O)C(C(=O)OCC)c1cccc(Cl)c1
inactive: [7] 106 % of control | [8] 109 % of control | [9] 103 % of control | [10] 103 % of control

c1ccc(NC2=NCCO2)nc1
inactive: [11] 100 % of control | [12] 94 % of control | [13] 102 % of control

C/C(O)=C(\C#N)c1ccc(Cl)cc1
inactive: dose: 12.5 mg/kg/injection, schedule: Q01DX001 (ip), vehicle: carboxymethylcellulose (CMC) 100 % of control | dose: 12.5 mg/kg/injection, schedule: Q04DX003 (ip), vehicle: carboxymethylcellulose (CMC) 100 % of control and 104 % of control | dose: 25.0 mg/kg/injection, schedule: Q01DX001 (ip), vehicle: carboxymethylcellulose (CMC) 108 % of control | dose: 25.0 mg/kg/injection, schedule: Q01DX009 (ip), vehicle: carboxymethylcellulose (CMC) 103 % of control and 113 % of control | dose: 25.0 mg/kg/injection, schedule: Q04DX002 (ip), vehicle: carboxymethylcellulose (CMC) 99 % of control and 100 % of control | dose: 25.0 mg/kg/injection, schedule: Q04DX003 (ip), vehicle: carboxymethylcellulose (CMC) 98 % of control and 90 % of control | dose: 50.0 mg/kg/injection, schedule: Q01DX001 (ip), vehicle: carboxymethylcellulose (CMC) 103 % of control and 111 % of control | dose: 50.0 mg/kg/injection, schedule: Q01DX009 (ip), vehicle: carboxymethylcellulose (CMC) 96 % of control and 100 % of control | dose: 50.0 mg/kg/injection, schedule: Q04DX002 (ip), vehicle: carboxymethylcellulose (CMC) 102 % of control and 103 % of control | dose: 50.0 mg/kg/injection, schedule: Q04DX003 (ip), vehicle: carboxymethylcellulose (CMC) 94 % of control and 98 % of control | dose: 100.0 mg/kg/injection, schedule: Q01DX001 (ip), vehicle: carboxymethylcellulose (CMC) 97 % of control and 102 % of control | dose: 100.0 mg/kg/injection, schedule: Q01DX009 (ip), vehicle: carboxymethylcellulose (CMC) 94 % of control | dose: 100.0 mg/kg/injection, schedule: Q04DX002 (ip), vehicle: carboxymethylcellulose (CMC) 93 % of control and 90 % of control

O=NN(CCCCl)C(=O)NC1CCCCC1
inactive: dose: 12.5 mg/kg/injection, schedule: Q01DX001 (ip), vehicle: saline 103 % of control | dose: 25.0 mg/kg/injection, schedule: Q01DX001 (ip), vehicle: saline 108 % of control | [7] 103 % of control | [8] 103 % of control | [9] 102 % of control | dose: 300.0 mg/kg/injection, schedule: Q01DX001 (ip), vehicle: saline 106 % of control | [10] 110 % of control | dose: 500.0 mg/kg/injection, schedule: Q01DX001 (ip), vehicle: saline 100 % of control | dose: 600.0 mg/kg/injection, schedule: Q01DX001 (ip), vehicle: saline 106 % of control | dose: 800.0 mg/kg/injection, schedule: Q01DX001 (ip), vehicle: saline 112 % of control | dose: 1000.0 mg/kg/injection, schedule: Q01DX001 (ip), vehicle: saline 103 % of control

CS(=O)(=O)OC1CCCCC1Oc1ccc(Br)cc1 (stereo unspecified)
inactive: dose: 100.0 mg/kg/injection, schedule: Q01DX001 (ip), vehicle: Klucel (hydroxypropylcellulose) (HPC) 106 % of control | [14] 101 % of control | dose: 200.0 mg/kg/injection, schedule: Q01DX001 (ip), vehicle: Klucel (hydroxypropylcellulose) (HPC) 104 % of control | [15] 113 % of control | dose: 400.0 mg/kg/injection, schedule: Q01DX001 (ip), vehicle: Klucel (hydroxypropylcellulose) (HPC) 103 % of control | [16] 98 % of control

CNC(=S)N/N=C(\C=N\NC(=S)NC)c1ccc(C)cc1
inactive: [17] 106 % of control | [18] 100 % of control | dose: 400.0 mg/kg/injection, schedule: Q04DX002 (ip), vehicle: Klucel (hydroxypropylcellulose) (HPC) 103 % of control

CC12CCCCC1=CC(=O)CCC2 (stereo unspecified)
inactive: [11] 98 % of control | [12] 98 % of control | [13] 98 % of control

O=C1c2ccccc2-c2c(N=Cc3ccc([N+](=O)[O-])cc3)cccc21
inactive: [14] 102 % of control | [15] 89 % of control | [16] 96 % of control

COc1cc(N(CCCl)CCCl)ccc1C1N(Cc2ccc(N(C)C)cc2)CCCN1Cc1ccc(N(C)C)cc1
inactive: [14] 100 % of control | [15] 107 % of control | [16] 104 % of control

CNCC(O)c1ccc(O)cc1 (stereo unspecified)
inactive: dose: 25.0 mg/kg/injection, schedule: Q01DX009 (ip), vehicle: saline 96 % of control | dose: 25.0 mg/kg/injection, schedule: Q04DX003 (ip), vehicle: saline 111 % of control | dose: 50.0 mg/kg/injection, schedule: Q01DX009 (ip), vehicle: saline 105 % of control | dose: 50.0 mg/kg/injection, schedule: Q04DX003 (ip), vehicle: saline 101 % of control | [1] 98 % of control | [2] 90 % of control and 101 % of control | [3] 98 % of control | [4] 88 % of control and 104 % of control | [5] 100 % of control | [6] 98 % of control and 120 % of control

COc1ccc(F)cc1CC#N
inactive: [17] 98 % of control | [18] 98 % of control

CC(=O)Oc1ccc(CCN(C)C2CC3CCC2(C)C3(C)C)cc1OC(C)=O (stereo unspecified)
inactive: [8] 110 % of control | [9] 93 % of control | [10] 100 % of control

CC(C)(O)CNS(=O)(=O)c1ccc(Br)cc1
inactive: dose: 100.0 mg/kg/injection, schedule: Q01DX009 (ip), vehicle: Klucel (hydroxypropylcellulose) (HPC) 105 % of control | dose: 200.0 mg/kg/injection, schedule: Q01DX009 (ip), vehicle: Klucel (hydroxypropylcellulose) (HPC) 101 % of control

CN(C)C1CS(=O)(=O)CC1[N+](C)(C)C (stereo unspecified)
inactive: dose: 100.0 mg/kg/injection, schedule: Q04DX002 (ip), vehicle: saline 118 % of control | dose: 200.0 mg/kg/injection, schedule: Q04DX002 (ip), vehicle: saline 89 % of control | dose: 400.0 mg/kg/injection, schedule: Q04DX002 (ip), vehicle: saline 110 % of control
